Measurements reported in US8455475B2 (Gruenenthal GmbH, priority 2009, dated 2013).

Each compound was assayed against T1, rat B1R (bradykinin receptor 1) (Rattus norvegicus, UniProt P97583) (assay: FLIPR Ca2+ assay (Fluo-4) on CHO K1 cells stably transfected with the B1R gene of the rat (rB1R cells): % inhibition at 10 μM / IC50, agonist Des-Arg9-bradykinin). Conditions: CHO-K1, rat B1R.
T1 construct: expressed in transfected cells; host or cells: CHO K1 cells
T1 sequence (P97583 1-337): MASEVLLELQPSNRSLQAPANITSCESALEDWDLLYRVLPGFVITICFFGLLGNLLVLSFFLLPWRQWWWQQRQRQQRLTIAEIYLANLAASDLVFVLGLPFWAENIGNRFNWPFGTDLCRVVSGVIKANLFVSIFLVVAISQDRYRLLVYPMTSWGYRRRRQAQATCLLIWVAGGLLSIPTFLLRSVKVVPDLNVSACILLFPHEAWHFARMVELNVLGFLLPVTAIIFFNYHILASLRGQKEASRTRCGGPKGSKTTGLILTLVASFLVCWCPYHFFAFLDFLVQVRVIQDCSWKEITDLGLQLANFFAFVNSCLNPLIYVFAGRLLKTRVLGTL
Format: cell-based
Method in brief: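 Antagonism is measured as the drop in peak Fluo-4 Ca2+ signal when the EC80 agonist follows 10–20 min compound exposure. The single-point screen uses 10 μM; IC50 uses several concentrations. Values are given as % of maximal achievable inhibition.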

Structure (SMILES) | inhibition at 10 µM [%]
CN(C)c1ncc(CN2CCC3(CC2)CCN(C(=O)c2ccc4c(c2)C(NC(=O)c2cccc(Cl)c2Cl)CC4)CC3)cn1 (centres unmarked) [IND_CC-753, 2,3-Dichloro-N-[6-[9-[(2-dimethylamino-pyrimidin-5-yl)-methyl]-3,9-diazaspiro[5.5]undecane-3-carbonyl]-2,3-dihydro-1H-inden-1-yl]-benzamide] | 90
O=C(NC1CCc2ccc(C(=O)N3CCC4(CCN(Cc5ccc6ncccc6c5)CC4)CC3)cc21)c1cccc(Cl)c1Cl (centres unmarked) [IND_CC-754, 2,3-Dichloro-N-[6-[9-(quinolin-6-yl-methyl)-3,9-diazaspiro[5.5]undecane-3-carbonyl]-2,3-dihydro-1H-inden-1-yl]-benzamide] | 87
O=C(NC1CCc2ccc(C(=O)N3CCC4(CCN(Cc5ccc6nccnc6c5)CC4)CC3)cc21)c1cccc(Cl)c1Cl (centres unmarked) [IND_CC-755, 2,3-Dichloro-N-[6-[9-(quinoxalin-6-yl-methyl)-3,9-diazaspiro[5.5]undecane-3-carbonyl]-2,3-dihydro-1H-inden-1-yl]-benzamide] | 92
Cn1nnc2cc(CN3CCC4(CC3)CCN(C(=O)c3ccc5c(c3)C(NC(=O)c3cccc(Cl)c3Cl)CC5)CC4)ccc21 (centres unmarked) [IND_CC-756, 2,3-Dichloro-N-[6-[9-[(1-methyl-1H-benzotriazol-5-yl)-methyl]-3,9-diazaspiro[5.5]undecane-3-carbonyl]-2,3-dihydro-1H-inden-1-yl]-benzamide] | 104
CC(C)CN1CCC2(CC1)CCN(C(=O)c1ccc3c(c1)C(NC(=O)c1cccc(Cl)c1Cl)CC3)CC2 (centres unmarked) [IND_CC-757, 2,3-Dichloro-N-[6-[9-(2-methyl-propyl)-3,9-diazaspiro[5.5]undecane-3-carbonyl]-2,3-dihydro-1H-inden-1-yl]-benzamide] | 52
O=C(NC1CCc2ccc(C(=O)N3CCC4(CCN(CCc5ccccc5)CC4)CC3)cc21)c1cccc(Cl)c1Cl (centres unmarked) [IND_CC-758, 2,3-Dichloro-N-[6-(9-phenethyl-3,9-diazaspiro[5.5]undecane-3-carbonyl)-2,3-dihydro-1H-inden-1-yl]-benzamide] | 86
O=C(NC1CCc2ccc(C(=O)N3CCC4(CCN(CCCc5cccc(F)c5)CC4)CC3)cc21)c1cccc(Cl)c1Cl (centres unmarked) [IND_CC-759, 2,3-Dichloro-N-[6-[9-[3-(3-fluorophenyl)-propyl]-3,9-diazaspiro[5.5]undecane-3-carbonyl]-2,3-dihydro-1H-inden-1-yl]-benzamide] | 78
O=C(NC1CCc2ccc(C(=O)N3CCC4(CCN(CCCc5ccc(F)cc5)CC4)CC3)cc21)c1cccc(Cl)c1Cl (centres unmarked) [IND_CC-760, 2,3-Dichloro-N-[6-[9-[3-(4-fluorophenyl)-propyl]-3,9-diazaspiro[5.5]undecane-3-carbonyl]-2,3-dihydro-1H-inden-1-yl]-benzamide] | 93
Cc1cccc(Cl)c1C(=O)NC1CCc2ccc(C(=O)N3CCC4(CCN(Cc5c(C)nn(C)c5C)CC4)C3)cc21 (centres unmarked) [IND_CC-761, 2-Chloro-6-methyl-N-[6-[8-[(1,3,5-trimethyl-1H-pyrazol-4-yl)-methyl]-2,8-diazaspiro[4.5]decane-2-carbonyl]-2,3-dihydro-1H-inden-1-yl]-benzamide] | 57
CCn1cc(CN2CCC3(CC2)CCN(C(=O)c2ccc4c(c2)C(NC(=O)c2c(C)cccc2Cl)CC4)C3)c(C)n1 (centres unmarked) [IND_CC-762, 2-Chloro-N-[6-[8-[(1-ethyl-3-methyl-1H-pyrazol-4-yl)-methyl]-2,8-diazaspiro-[4.5]decane-2-carbonyl]-2,3-dihydro-1H-inden-1-yl]-6-methyl-benzamide] | 55
Cc1cccc(Cl)c1C(=O)NC1CCc2ccc(C(=O)N3CCC4(CCN(Cc5cnc(N(C)C)nc5)CC4)C3)cc21 (centres unmarked) [IND_CC-763, 2-Chloro-N-[6-[8-[(2-dimethylamino-pyrimidin-5-yl)-methyl]-2,8-diazaspiro-[4.5]decane-2-carbonyl]-2,3-dihydro-1H-inden-1-yl]-6-methyl-benzamide] | 74
Cc1cccc(Cl)c1C(=O)NC1CCc2ccc(C(=O)N3CCC4(CCN(Cc5ccc6ncccc6c5)CC4)C3)cc21 (centres unmarked) [IND_CC-764, 2-Chloro-6-methyl-N-[6-[8-(quinolin-6-yl-methyl)-2,8-diazaspiro[4.5]decane-2-carbonyl]-2,3-dihydro-1H-inden-1-yl]-benzamide] | 71
Cc1cccc(Cl)c1C(=O)NC1CCc2ccc(C(=O)N3CCC4(CCN(Cc5ccc6nccnc6c5)CC4)C3)cc21 (centres unmarked) [IND_CC-765, 2-Chloro-6-methyl-N-[6-[8-(quinoxalin-6-yl-methyl)-2,8-diazaspiro[4.5]-decane-2-carbonyl]-2,3-dihydro-1H-inden-1-yl]-benzamide] | 105
Cc1cccc(Cl)c1C(=O)NC1CCc2ccc(C(=O)N3CCC4(CCN(Cc5ccc6c(c5)nnn6C)CC4)C3)cc21 (centres unmarked) [IND_CC-766, 2-Chloro-6-methyl-N-[6-[8-[(1-methyl-1H-benzotriazol-5-yl)-methyl]-2,8-diazaspiro[4.5]decane-2-carbonyl]-2,3-dihydro-1H-inden-1-yl]-benzamide] | 93
Cc1cccc(Cl)c1C(=O)NC1CCc2ccc(C(=O)N3CCC4(CCN(CC(C)C)CC4)C3)cc21 (centres unmarked) [IND_CC-767, 2-Chloro-6-methyl-N-[6-[8-(2-methyl-propyl)-2,8-diazaspiro[4.5]decane-2-carbonyl]-2,3-dihydro-1H-inden-1-yl]-benzamide] | 73
CCC(CC)CN1CCC2(CC1)CCN(C(=O)c1ccc3c(c1)C(NC(=O)c1c(C)cccc1Cl)CC3)C2 (centres unmarked) [IND_CC-768, 2-Chloro-N-[6-[8-(2-ethyl-butyl)-2,8-diazaspiro[4.5]decane-2-carbonyl]-2,3-dihydro-1H-inden-1-yl]-6-methyl-benzamide] | 79
Cc1cccc(Cl)c1C(=O)NC1CCc2ccc(C(=O)N3CCC4(CCN(CCc5ccccc5)CC4)C3)cc21 (centres unmarked) [IND_CC-769, 2-Chloro-6-methyl-N-[6-(8-phenethyl-2,8-diazaspiro[4.5]decane-2-carbonyl)-2,3-dihydro-1H-inden-1-yl]-benzamide] | 91
Cc1cccc(Cl)c1C(=O)NC1CCc2ccc(C(=O)N3CCC4(CCN(CCCc5cccc(F)c5)CC4)C3)cc21 (centres unmarked) [IND_CC-770, 2-Chloro-N-[6-[8-[3-(3-fluorophenyl)-propyl]-2,8-diazaspiro[4.5]decane-2-carbonyl]-2,3-dihydro-1H-inden-1-yl]-6-methyl-benzamide] | 109
Cc1cccc(Cl)c1C(=O)NC1CCc2ccc(C(=O)N3CCC4(CCN(CCCc5ccc(F)cc5)CC4)C3)cc21 (centres unmarked) [IND_CC-771, 2-Chloro-N-[6-[8-[3-(4-fluorophenyl)-propyl]-2,8-diazaspiro[4.5]decane-2-carbonyl]-2,3-dihydro-1H-inden-1-yl]-6-methyl-benzamide] | 108
CCn1cc(CN2CCC3(CC2)CCN(C(=O)c2ccc4c(c2)C(NC(=O)c2c(F)cccc2Cl)CC4)C3)c(C)n1 (centres unmarked) [IND_CC-772, 2-Chloro-N-[6-[8-[(1-ethyl-3-methyl-1H-pyrazol-4-yl)-methyl]-2,8-diazaspiro-[4.5]decane-2-carbonyl]-2,3-dihydro-1H-inden-1-yl]-6-fluoro-benzamide] | 52
